Experimental data from patent publication US20260337231A1, “METHOD FOR PRODUCING CYCLIC PEPTIDE COMPOUND” (CHUGAI SEIYAKU KABUSHIKI KAISHA, priority 2023, published 2026).

Assays:
Assay type in all cases: physicochemical
[1] = Thermogravimetry-differential thermal analysis (TG-DTA); settings: 10° C./min, nitrogen
Method: The thermogravimetry-differential thermal analysis (TG-DTA) for Example 3-8, Example 3-9, Example 3-12, Example 3-13, Example 3-17, and Example 3-19 was performed under the following conditions. • Measurement apparatus: STA7200RV+AS-3T (manufactured by Hitachi High-Tech Science Corporation) • Measurement range: 30 to 350° C. • Heating rate: 10° C./min • Atmosphere: nitrogen • Measurement: The sample was weighed in an open aluminum pan and covered with a mesh to perform the measurement.

[2] = Powder X-ray diffraction measurement at each relative humidity (influence of humidity on the crystal form); settings: 35.0 °C
Method: (§1) The powder X-ray diffraction measurement for Example 3-12 was performed under the following conditions to evaluate the crystal form at each relative humidity. The measurement was carried out at the time points between dropping the relative humidity to 0% and raising it to 90%: 0% (FIG. 21(A)), 10% (FIG. 21(B)), 20% (FIG. 21(C)), 50% (FIG. 21(D)), and 90% (FIG. 21(E)). • Measurement apparatus: SmartLab System, D/Tex Ultra detector, humidity generator HUM-SL (manufactured by Rigaku Corporation) • Radiation source: CuKα1 • Tube voltage: 45 kV • Tube current: 200 mA • Scanning range: 4 to 35° • Scanning speed: 5°/min • Sampling width: 0.02° • Humidity change conditions:
as §1, with “3-13” for “3-12”, “24(A)), 30%” for “21(A)), 10%”, “24(B)),” for “21(B)), 20% (FIG. 21(C)),”, “24(C)),” for “21(D)),”, “24(D)).” for “21(E)).”, “conditions: […]” for “conditions:”

[3] = Slurry conversion experiment (form A, form B and form K crystals mixed and shaken in mixed solvent); settings: 25° C., 2000 rpm
Method: The powder X-ray diffraction measurement for Example 3-2, Example 3-3, Example 3-4, Example 3-5, Example 3-6, Example 3-7, Example 3-9, Example 3-16, Example 3-17, Example 3-22, Example 5-1, Example 5-2, Example 5-3, Example 5-4, Example 5-5, Example 5-6, Example 5-7, Example 5-8, and Example 5-9 was performed under the following conditions. • Measurement apparatus: D8 Discover, 2D VANTEC-500 solid state detector (manufactured by Bruker) • Radiation source: CuKα • Tube voltage and tube current: 50 kV and 1000 μA • Measurement range: 5 to 31° • Exposure time: 40 seconds
The form A crystal (3.0 mg), form B crystal (3.0 mg), and form K crystal (3.0 mg) of compound 1 were mixed, and a mixed solvent of acetone-heptane (1:1 (v/v), 0.030 mL) and one grain of glass bead were added. Using a shaker (BioShaker M⋅BR-022UP manufactured by TAITEC CORPORATION), the mixture was shaken at 25° C., 2000 rpm for 9 days, and then filtered and dried under reduced pressure to obtain a crystal (form B) of compound 1. […] It was confirmed that the form B crystal is a stable form in the mixed solvent of acetone-heptane (1:1 (v/v)).
The form A crystal (3.1 mg), form B crystal (3.1 mg), and form K crystal (3.1 mg) of compound 1 were mixed, and a mixed solvent of 2-propanol-heptane (1:1 (v/v), 0.030 mL) and one grain of glass bead were added. Using a shaker (BioShaker M⋅BR-022UP manufactured by TAITEC CORPORATION), the mixture was shaken at 25° C., 2000 rpm for 9 days, and then filtered and dried under reduced pressure to obtain a crystal (form B) of compound 1. […] It was confirmed that the form B crystal is a stable form in the mixed solvent of 2-propanol-heptane (1:1 (v/v)).
The form A crystal (3.0 mg), form B crystal (3.0 mg), and form K crystal (3.1 mg) of compound 1 were mixed, and a mixed solvent of ethanol-heptane (1:1 (v/v), 0.030 mL) and one grain of glass bead were added. Using a shaker (BioShaker M⋅BR-022UP manufactured by TAITEC CORPORATION), the mixture was shaken at 25° C., 2000 rpm for 9 days, and then filtered and dried under reduced pressure to obtain a crystal (form B) of compound 1. […] It was confirmed that the form B crystal is a stable form in the mixed solvent of ethanol-heptane (1:1 (v/v)).
The form A crystal (3.0 mg), form B crystal (3.0 mg), and form K crystal (3.0 mg) of compound 1 were mixed, and a mixed solvent of acetone-water (1:1 (v/v), 0.030 mL) and one grain of glass bead were added. Using a shaker (BioShaker M⋅BR-022UP manufactured by TAITEC CORPORATION), the mixture was shaken at 25° C., 2000 rpm for 9 days, and then filtered and dried under reduced pressure to obtain a crystal (form B) of compound 1. […] It was confirmed that the form B crystal is a stable form in the mixed solvent of acetone-water (1:1 (v/v)).
The form A crystal (3.0 mg), form B crystal (3.1 mg), and form K crystal (3.1 mg) of compound 1 were mixed, and a mixed solvent of 2-propanol-water (1:1 (v/v), 0.030 mL) and one grain of glass bead were added. Using a shaker (BioShaker M⋅BR-022UP manufactured by TAITEC CORPORATION), the mixture was shaken at 25° C., 2000 rpm for 9 days, and then filtered and dried under reduced pressure to obtain a crystal (form B) of compound 1. […] It was confirmed that the form B crystal is a stable form in the mixed solvent of 2-propanol-water (1:1 (v/v)).
The form A crystal (3.1 mg), form B crystal (3.0 mg), and form K crystal (3.1 mg) of compound 1 were mixed, and a mixed solvent of ethanol-water (1:1 (v/v), 0.030 mL) and one grain of glass bead were added. Using a shaker (BioShaker M⋅BR-022UP manufactured by TAITEC CORPORATION), the mixture was shaken at 25° C., 2000 rpm for 9 days, and then filtered and dried under reduced pressure to obtain a crystal (form B) of compound 1. […] It was confirmed that the form B crystal is a stable form in the mixed solvent of ethanol-water (1:1 (v/v)). […]

Compound	weight reduction ([1]; crystal of Example 3-8 (from acetone/heptane)) [wt %]	weight reduction ([1]; crystal of Example 3-9 (from 2-propanol/heptane)) [wt %]	crystal form at a relative humidity of 0% [2]	stable form in slurry conversion ([3]; 2-propanol-heptane (1:1 (v/v)), 9 days)	stable form in slurry conversion ([3]; 2-propanol-water (1:1 (v/v)), 9 days)	stable form in slurry conversion ([3]; 2-propanol-water (1:4 (v/v)), 9 days)	stable form in slurry conversion ([3]; acetone-heptane (1:1 (v/v)), 9 days)	stable form in slurry conversion ([3]; acetone-water (1:1 (v/v)), 9 days)	stable form in slurry conversion ([3]; acetone-water (1:4 (v/v)), 9 days)	stable form in slurry conversion ([3]; ethanol-heptane (1:1 (v/v)), 9 days)	stable form in slurry conversion ([3]; ethanol-water (1:1 (v/v)), 9 days)	stable form in slurry conversion ([3]; ethanol-water (1:4 (v/v)), 7 days)
CCC[C@H]1C(=O)N[C@@H]([C@@H](C)CC)C(=O)N2CCC[C@H]2C(=O)N(C)[C@H]2C/C=C\CCN(C2=O)[C@@H](Cc2ccc(C(F)(F)F)cc2)C(=O)N(C)CC(=O)N[C@@H](CCc2ccc(C(F)(F)F)c(OC)c2)C(=O)N2C[C@H](OCC)C[C@H]2C(=O)N(C)C2(CCC2)C(=O)N(C)[C@@H](C2CCCC2)C(=O)N(C)[C@H](C(=O)N(C)C)CC(=O)N1C [form A]	3	2	transformed into the form J									
CCC[C@H]1C(=O)N[C@@H]([C@@H](C)CC)C(=O)N2CCC[C@H]2C(=O)N(C)[C@H]2C/C=C\CCN(C2=O)[C@@H](Cc2ccc(C(F)(F)F)cc2)C(=O)N(C)CC(=O)N[C@@H](CCc2ccc(C(F)(F)F)c(OC)c2)C(=O)N2C[C@H](OCC)C[C@H]2C(=O)N(C)C2(CCC2)C(=O)N(C)[C@@H](C2CCCC2)C(=O)N(C)[C@H](C(=O)N(C)C)CC(=O)N1C [form B]			transformed into the form Y	a stable form	a stable form	a stable form	a stable form	a stable form	a stable form	a stable form	a stable form	a stable form
